Results on 30 molecules are retold here after patent publication US20250346616A1 (DIZAL (JIANGSU) PHARMACEUTICAL CO., LTD., priority 2022, published 2025).

One experiment concerns the target Recombinant ROCK2 (Homo sapiens (Human), UniProt O75116). Briefly: Lance Ultra Kinase Assay, ROCK2 inhibition. The format is biochemical. The conditions noted are these: ATP at Km, 30 min pre-incubation, 1 h reaction.
For another experiment, the target named is Recombinant ROCK1 (Homo sapiens (Human), UniProt Q13464). Put plainly: Lance Ultra Kinase Assay, ROCK1 inhibition. The format is biochemical. The conditions noted are these: ATP at Km, 30 min pre-incubation, 1 h reaction.
Recombinant ROCK1, sequence (Q13464 whole entry): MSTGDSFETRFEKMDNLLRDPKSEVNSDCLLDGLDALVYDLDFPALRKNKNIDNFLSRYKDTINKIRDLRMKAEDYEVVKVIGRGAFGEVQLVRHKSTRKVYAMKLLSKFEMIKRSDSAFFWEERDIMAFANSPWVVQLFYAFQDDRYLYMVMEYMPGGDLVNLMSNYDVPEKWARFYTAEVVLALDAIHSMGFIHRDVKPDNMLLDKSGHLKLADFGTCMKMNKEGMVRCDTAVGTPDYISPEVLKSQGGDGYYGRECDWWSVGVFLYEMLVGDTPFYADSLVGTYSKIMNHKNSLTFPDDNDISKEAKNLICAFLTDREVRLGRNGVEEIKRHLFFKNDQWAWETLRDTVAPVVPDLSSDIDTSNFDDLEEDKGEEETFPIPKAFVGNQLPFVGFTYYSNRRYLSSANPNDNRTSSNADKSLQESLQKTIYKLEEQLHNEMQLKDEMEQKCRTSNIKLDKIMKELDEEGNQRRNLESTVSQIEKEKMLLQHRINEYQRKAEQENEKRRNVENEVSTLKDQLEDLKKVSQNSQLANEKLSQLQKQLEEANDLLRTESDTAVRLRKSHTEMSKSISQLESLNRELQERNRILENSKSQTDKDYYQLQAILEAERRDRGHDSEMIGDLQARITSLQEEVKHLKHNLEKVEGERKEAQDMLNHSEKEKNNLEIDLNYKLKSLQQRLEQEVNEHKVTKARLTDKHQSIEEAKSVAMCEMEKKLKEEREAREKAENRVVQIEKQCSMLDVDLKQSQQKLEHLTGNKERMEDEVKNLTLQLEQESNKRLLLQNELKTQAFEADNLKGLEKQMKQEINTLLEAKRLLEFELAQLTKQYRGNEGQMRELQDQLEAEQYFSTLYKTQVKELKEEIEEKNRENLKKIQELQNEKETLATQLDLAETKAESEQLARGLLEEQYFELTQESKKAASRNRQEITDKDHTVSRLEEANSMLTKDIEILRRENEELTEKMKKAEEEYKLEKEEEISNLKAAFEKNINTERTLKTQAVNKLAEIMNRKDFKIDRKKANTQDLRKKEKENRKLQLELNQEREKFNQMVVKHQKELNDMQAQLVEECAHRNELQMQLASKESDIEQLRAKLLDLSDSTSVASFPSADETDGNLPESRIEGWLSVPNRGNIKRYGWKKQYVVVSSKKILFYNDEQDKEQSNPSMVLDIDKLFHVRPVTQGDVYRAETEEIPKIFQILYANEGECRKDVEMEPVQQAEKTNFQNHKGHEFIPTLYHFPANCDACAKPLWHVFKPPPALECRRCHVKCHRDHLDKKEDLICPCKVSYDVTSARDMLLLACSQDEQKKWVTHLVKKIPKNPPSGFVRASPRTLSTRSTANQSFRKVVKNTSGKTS

Recombinant ROCK2, sequence (O75116 whole entry): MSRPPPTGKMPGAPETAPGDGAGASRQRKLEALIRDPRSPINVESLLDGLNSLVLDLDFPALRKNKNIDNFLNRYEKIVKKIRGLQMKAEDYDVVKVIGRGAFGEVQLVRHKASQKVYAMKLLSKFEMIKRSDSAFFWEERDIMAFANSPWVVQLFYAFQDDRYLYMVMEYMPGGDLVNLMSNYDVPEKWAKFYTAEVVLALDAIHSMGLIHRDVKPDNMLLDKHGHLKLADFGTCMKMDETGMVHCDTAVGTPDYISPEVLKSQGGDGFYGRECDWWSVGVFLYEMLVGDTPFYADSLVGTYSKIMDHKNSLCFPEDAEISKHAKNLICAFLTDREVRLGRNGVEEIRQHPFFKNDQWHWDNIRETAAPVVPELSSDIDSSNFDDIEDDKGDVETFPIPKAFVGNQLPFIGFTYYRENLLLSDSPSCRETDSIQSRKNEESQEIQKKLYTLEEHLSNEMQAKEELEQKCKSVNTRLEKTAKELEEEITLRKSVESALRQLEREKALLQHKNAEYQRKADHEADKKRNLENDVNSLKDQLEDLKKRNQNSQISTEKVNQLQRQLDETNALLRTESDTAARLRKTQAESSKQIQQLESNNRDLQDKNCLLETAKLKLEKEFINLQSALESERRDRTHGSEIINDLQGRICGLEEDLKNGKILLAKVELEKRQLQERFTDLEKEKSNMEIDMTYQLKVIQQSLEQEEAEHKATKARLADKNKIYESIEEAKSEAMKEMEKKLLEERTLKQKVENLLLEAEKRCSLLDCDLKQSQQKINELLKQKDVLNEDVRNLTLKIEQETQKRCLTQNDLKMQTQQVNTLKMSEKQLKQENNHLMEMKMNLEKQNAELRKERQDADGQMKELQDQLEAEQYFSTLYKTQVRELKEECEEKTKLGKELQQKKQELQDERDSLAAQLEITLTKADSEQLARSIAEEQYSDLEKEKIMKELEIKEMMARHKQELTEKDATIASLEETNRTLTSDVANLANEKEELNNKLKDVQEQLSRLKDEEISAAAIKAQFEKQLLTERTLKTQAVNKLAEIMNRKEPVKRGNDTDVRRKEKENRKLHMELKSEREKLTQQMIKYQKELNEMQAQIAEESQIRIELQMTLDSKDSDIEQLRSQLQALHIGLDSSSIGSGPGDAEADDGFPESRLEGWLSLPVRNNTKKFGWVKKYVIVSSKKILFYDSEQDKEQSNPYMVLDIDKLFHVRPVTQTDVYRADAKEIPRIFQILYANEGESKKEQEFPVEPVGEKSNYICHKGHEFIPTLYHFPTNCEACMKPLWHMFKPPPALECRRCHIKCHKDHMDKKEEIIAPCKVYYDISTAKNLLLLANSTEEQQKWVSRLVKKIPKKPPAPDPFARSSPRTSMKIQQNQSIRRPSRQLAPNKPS
Description for Recombinant ROCK1: (§1) The inhibition potency of compounds against these enzymes was assessed using Lance Ultra Kinase Assay. In brief, recombinant kinases were pre-incubated in the presence or absence of compound at room temperature for 30 minutes. The reaction was initiated by the addition of the ATP (Km) and substrate peptide which could be phosphorylated by kinases in the reaction. After 1 h incubation, the reaction was stopped by the addition of the detection reagent mix containing EDTA. The fluorescence was measured at 615 nm and 665 nm, respectively with excitation wavelength at 320 nm. The calculated signal ratio of 665 nm/615 nm is proportional to the kinase activity.
Description for Recombinant ROCK2: as §1

As usually defined, the IC50 is the concentration at which inhibition is half-maximal. For `CN1CCN(C(C(=O)Nc2cccc3c(-c4cn[nH]c4)c[nH]c23)C2CCCCC2)CC1` (racemic) [Example 129, 2-cyclohexyl-2-(4-methylpiperazin-1-yl)-N-[3-(1H-pyrazol-4-yl)-1H-indol-7-yl]acetamide], the IC50 at Recombinant ROCK2 and at Recombinant ROCK1 was 1.7 nM each time.
Regarding `O=C(Nc1cccc2c(-c3cn[nH]c3)c[nH]c12)C1CNCc2ccccc21` (racemic) [Example 133, N-(3-(1H-pyrazol-4-yl)-1H-indol-7-yl)-1,2,3,4-tetrahydroisoquinoline-4-carboxamide], the IC50 at Recombinant ROCK2 was found to be 31 nM; on Recombinant ROCK1, 44 nM.
Take `NCC(NC(=O)c1cccc2c(-c3cn[nH]c3)c[nH]c12)c1ccccc1` (racemic) [Example 134, N-(2-amino-1-phenylethyl)-3-(1H-pyrazol-4-yl)-1H-indole-7-carboxamide]: the results for the IC50 on Recombinant ROCK2 and on Recombinant ROCK1 were 0.88 nM and 2.6 nM, respectively.
The matching figures for `NCCC(NC(=O)c1cccc2c(-c3cn[nH]c3)c[nH]c12)c1ccccc1` (racemic) [Example 140, N-(3-amino-1-phenylpropyl)-3-(1H-pyrazol-4-yl)-1H-indole-7-carboxamide]: 0.86 nM and 2.8 nM.
On to `CN1CCC(C(NC(=O)c2cccc3c(-c4cn[nH]c4)c[nH]c23)C2CCCCC2)CC1` (racemic) [Example 143, N-[cyclohexyl (1-methylpiperidin-4-yl)methyl]-3-(1H-pyrazol-4-yl)-1H-indole-7-carboxamide], for which the results for the IC50 on Recombinant ROCK2 and on Recombinant ROCK1 were 315 nM and 397 nM, respectively.
The like results for `NCC(NC(=O)c1cccc2c(-c3cn[nH]c3)c[nH]c12)c1ccc(CO)cc1` (racemic) [Example 146, N-(2-amino-1-(4-(hydroxymethyl)phenyl)ethyl)-3-(1H-pyrazol-4-yl)-1H-indole-7-carboxamide] were, in that order, 4.9 nM and 18 nM.
On to `NCC(Cc1ccccc1)NC(=O)c1cccc2c(-c3cn[nH]c3)c[nH]c12` (racemic) [Example 147, N-(1-amino-3-phenylpropan-2-yl)-3-(1H-pyrazol-4-yl)-1H-indole-7-carboxamide], for which the IC50 turned out to be 0.4 nM on Recombinant ROCK2 and 0.88 nM on Recombinant ROCK1.
For `CP(C)(=O)c1cccc(C(CN)NC(=O)c2cccc3c(-c4cn[nH]c4)c[nH]c23)c1` (racemic) [Example 151, (rac)-N-{2-amino-1-[3-(dimethylphosphoryl)phenyl]ethyl}-3-(1H-pyrazol-4-yl)-1H-indole-7-carboxamide], the results for the IC50 at Recombinant ROCK2 and at Recombinant ROCK1 were 71 nM and 204 nM, respectively.
The matching figures for `Cc1ccc(C(=O)OCc2ccc(C(CN)C(=O)Nc3cccc4c(-c5cn[nH]c5)c[nH]c34)cc2)c(C)c1` (single isomer, unassigned) [Example 5]: 4.3 nM and 8 nM.
The like results for `Cc1ccc(C(=O)OCc2ccc(C(CN)C(=O)Nc3cccc4c(-c5cn[nH]c5)c[nH]c34)cc2)c(C)c1` (single isomer, unassigned) [Example 6] were, in that order, 247 nM and 442 nM.
The matching figures for `COc1cccc(C(CN)C(=O)Nc2cccc3c(-c4cn[nH]c4)c[nH]c23)c1` (single isomer, unassigned) [Example 17, N-(3-(1H-pyrazol-4-yl)-1H-indol-7-yl)-3-amino-2-(3-methoxyphenyl)propanamide]: 15 nM and 31 nM.
Turning to `N#Cc1cccc(C(CN)C(=O)Nc2cccc3c(-c4cn[nH]c4)c[nH]c23)c1` (single isomer, unassigned) [Example 21, N-(3-(1H-pyrazol-4-yl)-1H-indol-7-yl)-3-amino-2-(3-cyanophenyl)propanamide], the IC50 turned out to be 70 nM on Recombinant ROCK2 and 125 nM on Recombinant ROCK1.
As to `NCC(C(=O)Nc1cccc2c(-c3cn[nH]c3)c[nH]c12)C1CCCCC1` (single isomer, unassigned) [Example 24, N-(3-(1H-pyrazol-4-yl)-1H-indol-7-yl)-3-amino-2-cyclohexylpropanamide], the results for the IC50 at Recombinant ROCK2 and at Recombinant ROCK1 were 3 nM and 4 nM, respectively.
The matching figures for `NCC(C(=O)Nc1cccc2c(-c3cn[nH]c3)c[nH]c12)C1CCOCC1` (single isomer, unassigned) [Example 27, N-(3-(1H-pyrazol-4-yl)-1H-indol-7-yl)-3-amino-2-(tetrahydro-2H-pyran-4-yl)propanamide]: 66 nM and 87 nM.
The matching figures for `COc1cccc([C@@H](C(=O)Nc2cccc3c(-c4cn[nH]c4)c[nH]c23)C2CCN(C)CC2)c1` (single isomer, unassigned) [Example 29, N-(3-(1H-pyrazol-4-yl)-1H-indol-7-yl)-2-(3-methoxyphenyl)-2-(1-methylpiperidin-4-yl) acetamide]: 23 nM and 59 nM.
The like results for `COc1cccc([C@H](C(=O)Nc2cccc3c(-c4cn[nH]c4)c[nH]c23)C2CCN(C)CC2)c1` (single isomer, unassigned) [Example 30, N-(3-(1H-pyrazol-4-yl)-1H-indol-7-yl)-2-(3-methoxyphenyl)-2-(1-methylpiperidin-4-yl) acetamide] were, in that order, 1.1 nM and 3.2 nM.
As for `NCC(C(=O)Nc1cccc2c(-c3cn[nH]c3)c[nH]c12)c1cccnc1` (single isomer, unassigned) [Example 33, N-(3-(1H-pyrazol-4-yl)-1H-indol-7-yl)-3-amino-2-(pyridin-3-yl)propanamide], the IC50 is 50 nM on Recombinant ROCK2 and 97 nM at Recombinant ROCK1.
Consider `COc1cccc(C(CN2CCN(C)CC2)C(=O)Nc2cccc3c(-c4cn[nH]c4)c[nH]c23)c1` (single isomer, unassigned) [Example 35, N-(3-(1H-pyrazol-4-yl)-1H-indol-7-yl)-2-(3-methoxyphenyl)-3-(4-methylpiperazin-1-yl)propanamide], for which the IC50 on Recombinant ROCK2 came out at 0.76 nM; at Recombinant ROCK1, 1.8 nM.
The matching figures for `COc1cccc(C(CN2CCN(C)CC2)C(=O)Nc2cccc3c(-c4cn[nH]c4)c[nH]c23)c1` (single isomer, unassigned) [Example 36, N-(3-(1H-pyrazol-4-yl)-1H-indol-7-yl)-2-(3-methoxyphenyl)-3-(4-methylpiperazin-1-yl)propanamide]: 174 nM and 321 nM.
`CN1CCN(CC(C(=O)Nc2cccc3c(-c4cn[nH]c4)c[nH]c23)c2ccccc2)CC1` (single isomer, unassigned) [Example 39, N-(3-(1H-pyrazol-4-yl)-1H-indol-7-yl)-3-(4-methylpiperazin-1-yl)-2-phenylpropanamide]: the IC50 on Recombinant ROCK2 came out at 116 nM; at Recombinant ROCK1, 175 nM.
Take `CN1CCC(C(C(=O)Nc2cccc3c(-c4cn[nH]c4)c[nH]c23)c2ccccc2)CC1` (single isomer, unassigned) [Example 44, N-(3-(1H-pyrazol-4-yl)-1H-indol-7-yl)-2-(1-methylpiperidin-4-yl)-2-phenylacetamide]: the IC50 at Recombinant ROCK2 turned out to be 70 nM; on Recombinant ROCK1, 111 nM.
Consider `CN1CCN(C(C(=O)Nc2cccc3c(-c4cn[nH]c4)c[nH]c23)c2ccccc2)CC1` (single isomer, unassigned) [Example 47, N-(3-(1H-pyrazol-4-yl)-1H-indol-7-yl)-2-(4-methylpiperazin-1-yl)-2-phenylacetamide], for which the values for the IC50 at Recombinant ROCK2 and on Recombinant ROCK1 were 121 nM and 201 nM, respectively.
The matching figures for `CN1CCN(C(C(=O)Nc2cccc3c(-c4cn[nH]c4)c[nH]c23)c2ccccc2)CC1` (single isomer, unassigned) [Example 48, N-(3-(1H-pyrazol-4-yl)-1H-indol-7-yl)-2-(4-methylpiperazin-1-yl)-2-phenylacetamide]: 0.84 nM and 1.6 nM.
Regarding `CNC(=O)OCc1cccc(C(CN)C(=O)Nc2cccc3c(-c4cn[nH]c4)c[nH]c23)c1` (single isomer, unassigned) [Example 50, 3-(1-((3-(1H-pyrazol-4-yl)-1H-indol-7-yl)amino)-3-amino-1-oxopropan-2-yl)benzyl methylcarbamate], the IC50 at Recombinant ROCK2 is 0.22 nM; at Recombinant ROCK1 it was 0.32 nM.
The like results for `CNC(=O)OCc1cccc(C(CN)C(=O)Nc2cccc3c(-c4cn[nH]c4)c[nH]c23)c1` (single isomer, unassigned) [Example 51, 3-(1-((3-(1H-pyrazol-4-yl)-1H-indol-7-yl)amino)-3-amino-1-oxopropan-2-yl)benzyl methylcarbamate] were, in that order, 22 nM and 33 nM.
The like results for `N#Cc1ccc(C(CN)C(=O)Nc2cccc3c(-c4cn[nH]c4)c[nH]c23)cc1` (single isomer, unassigned) [Example 58, N-(3-(1H-pyrazol-4-yl)-1H-indol-7-yl)-3-amino-2-(4-cyanophenyl)propanamide] were, in that order, 48 nM and 136 nM.
The like results for `NCC(C(=O)Nc1cccc2c(-c3cn[nH]c3)c[nH]c12)c1ccc(CO)nc1` (single isomer, unassigned) [Example 61, N-(3-(1H-pyrazol-4-yl)-1H-indol-7-yl)-3-amino-2-(6-(hydroxymethyl)pyridin-3-yl)propanamide] were, in that order, 8.9 nM and 26 nM.
Consider `Cc1cncc(C(CN)C(=O)Nc2cccc3c(-c4cn[nH]c4)c[nH]c23)c1` (single isomer, unassigned) [Example 62, N-(3-(1H-pyrazol-4-yl)-1H-indol-7-yl)-3-amino-2-(5-methylpyridin-3-yl)propanamide], for which the IC50 at Recombinant ROCK2 worked out at 31 nM; on Recombinant ROCK1, 68 nM.
The like results for `Cc1cncc(C(CN)C(=O)Nc2cccc3c(-c4cn[nH]c4)c[nH]c23)c1` (single isomer, unassigned) [Example 63, N-(3-(1H-pyrazol-4-yl)-1H-indol-7-yl)-3-amino-2-(5-methylpyridin-3-yl)propanamide] were, in that order, 0.24 nM and 0.43 nM.
The like results for `NCC(C(=O)Nc1cccc2c(-c3cn[nH]c3)c[nH]c12)c1cccc(O)c1` (single isomer, unassigned) [Example 64, N-(3-(1H-pyrazol-4-yl)-1H-indol-7-yl)-3-amino-2-(3-hydroxyphenyl)propanamide] were, in that order, 0.19 nM and 0.37 nM.
